{"source": "patent US5456247A", "about": "“Method for delivering drugs soluble in a vaporization vehicle” (priority 1993, dated 1995)", "key": {"[1]": {"details": "in vivo", "description": "(§1) The levels that were taken orally were administered for a period of time on the order of days, while inhalation treatments were for a period of time on the order of minutes in length (five minutes)."}, "in vivo [2]": {"assay": "in vivo", "details": "rat, inhaled or intranasal", "experimental": "Tests were conducted to study the entry of sulfa drugs into the blood and lungs of test subjects. […] Rats were placed in the treatment chamber 9. […] An air pump was used to circulate air through the volatile chamber 10 to the treatment chamber. The rats' condition, temperature of the flask and vapor flow into the treatment chamber 9 were monitored. After three minutes of inhalation therapy the air flow was shut off and the rats were removed from treatment chamber 9. Blood and lung tissue were removed for testing."}, "in vivo [3]": {"assay": "in vivo", "details": "inhaled or intranasal", "description": "as §1"}, "[4]": {"details": "rat, in vivo, inhaled or intranasal, 0.05 h", "experimental": "Tests were conducted to study the entry of sulfa drugs into the blood and lungs of test subjects. […] Samples of sulfamethazine and menthol (0.285 grams equal portions of each) were weighed and heated at 180° C. in a distillation flask in the volatile chamber. Rats were placed in the treatment chamber 9. […] An air pump was used to circulate air through the volatile chamber 10 to the treatment chamber. The rats' condition, temperature of the flask and vapor flow into the treatment chamber 9 were monitored. After three minutes of inhalation therapy the air flow was shut off and the rats were removed from treatment chamber 9. Blood and lung tissue were removed for testing."}, "bordetella avium": {"test_system": "bordetella avium", "details": "turkeys; route not stated; cited from earlier work"}, "[5]": {"assay": "Volatilization of drugs with a vaporization vehicle", "type": "physicochemical", "details": "menthol as vaporization vehicle", "excerpt": "The amount of vaporization vehicle depends on which drug is delivered. […] Other potential vaporization vehicles include carvone, menthone and camphor."}}, "note": "Like-named read-outs stand apart in the source and are kept apart here.", "data": [{"molecule": "Cc1cc(C)nc(NS(=O)(=O)c2ccc(N)cc2)n1", "note": "[sulfamethazine]", "values": [{"measurement": "sulfamethazine level in lung tissue, inhalation, immediate", "setting": "[1]; 0 min", "result": 0.2, "unit": "ppm"}, {"measurement": "sulfamethazine level in lung tissue, oral", "setting": "[1]; po", "result": 0.1, "unit": "ppm"}, {"measurement": "Lungs: sulfamethazine level", "setting": "in vivo [2]; 0.05 h", "result": "~ 0.1 ppm"}, {"measurement": "concentration at 0.05 h", "setting": "in vivo [2]; Lungs: sulfamethazine level", "result": "~100", "unit": "ng/g"}, {"measurement": "concentration at 25 min", "setting": "in vivo [3]", "result": 100, "unit": "ng/g"}, {"measurement": "Lungs: sulfamethazine level", "setting": "[4]", "result": 50, "unit": "ppb"}]}, {"molecule": "Cc1cc(NS(=O)(=O)c2ccc(N)cc2)no1", "note": "[sulfamethoxazole]", "values": [{"measurement": "success at treating bordetella avium disease", "setting": "bordetella avium", "result": "successful at treating the disease"}]}, {"molecule": "gentamicin", "values": [{"measurement": "success at treating bordetella avium disease", "setting": "bordetella avium", "result": "successful at treating the disease"}, {"measurement": "need for menthol for volatilization", "setting": "[5]", "result": "can be volatilized with little or no menthol"}]}]}
